Assay results as given in patent US9748489B2, “Copolymer and organic solar cell comprising same” (LG CHEM, LTD., priority 2013, dated 2017).
Values after ≈ are worked out from the molar mass of the structure shown.

Experiment: Solubility of each monomer in chlorobenzene at room temperature
Format: physicochemical
Description: The term “solubility of the unit” as used herein means measurement of the solubility in a solution of each unit monomer at room temperature.

- Solubility: 5000 µg/mL (≈ 10.9 mM)
Structure (SMILES): Brc1ccc(-c2ccc(-c3ccc(Br)s3)c3nsnc23)s1
